# From patent US20260062387A1, “SALT-INDUCIBLE KINASE INHIBITOR COMPOUND AND PHARMACEUTICAL COMPOSITION INCLUDING THE SAME” (MITSUBISHI TANABE PHARMA CORPORATION, priority 2023, published 2026)
# Experiments:
# Type in all cases: biochemical
# [1] = molecular target: GST-tagged SIK1 (Homo sapiens (Human), UniProt P57059); assay: SIK1 inhibition test (ADP-Glo Max Assay); conditions: enzyme 20 nM, AMARA Peptide 200 μM, ATP 1 mM, 2 hours room temperature
# Outline: (§1)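 GST-tagged human SIK1, SIK2 and SIK3 at 20 nM, 3 nM and 100 nM final in Tris pH 7.5 buffer, with AMARA peptide (200 μM for SIK1/SIK2, 100 μM for SIK3), 1 mM ATP and 5 mM MgCl2. Reaction ran 2 h at room temperature. ADP read by ADP-Glo Max luminescence, and IC50 fitted from 16 concentrations.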
# [2] = molecular target: GST-tagged SIK2 (Homo sapiens (Human), UniProt Q9H0K1); assay: SIK2 inhibition test (ADP-Glo Max Assay); conditions: enzyme 3 nM, AMARA Peptide 200 μM, ATP 1 mM, 2 hours room temperature
# Chain of GST-tagged SIK2 (Q9H0K1 whole entry): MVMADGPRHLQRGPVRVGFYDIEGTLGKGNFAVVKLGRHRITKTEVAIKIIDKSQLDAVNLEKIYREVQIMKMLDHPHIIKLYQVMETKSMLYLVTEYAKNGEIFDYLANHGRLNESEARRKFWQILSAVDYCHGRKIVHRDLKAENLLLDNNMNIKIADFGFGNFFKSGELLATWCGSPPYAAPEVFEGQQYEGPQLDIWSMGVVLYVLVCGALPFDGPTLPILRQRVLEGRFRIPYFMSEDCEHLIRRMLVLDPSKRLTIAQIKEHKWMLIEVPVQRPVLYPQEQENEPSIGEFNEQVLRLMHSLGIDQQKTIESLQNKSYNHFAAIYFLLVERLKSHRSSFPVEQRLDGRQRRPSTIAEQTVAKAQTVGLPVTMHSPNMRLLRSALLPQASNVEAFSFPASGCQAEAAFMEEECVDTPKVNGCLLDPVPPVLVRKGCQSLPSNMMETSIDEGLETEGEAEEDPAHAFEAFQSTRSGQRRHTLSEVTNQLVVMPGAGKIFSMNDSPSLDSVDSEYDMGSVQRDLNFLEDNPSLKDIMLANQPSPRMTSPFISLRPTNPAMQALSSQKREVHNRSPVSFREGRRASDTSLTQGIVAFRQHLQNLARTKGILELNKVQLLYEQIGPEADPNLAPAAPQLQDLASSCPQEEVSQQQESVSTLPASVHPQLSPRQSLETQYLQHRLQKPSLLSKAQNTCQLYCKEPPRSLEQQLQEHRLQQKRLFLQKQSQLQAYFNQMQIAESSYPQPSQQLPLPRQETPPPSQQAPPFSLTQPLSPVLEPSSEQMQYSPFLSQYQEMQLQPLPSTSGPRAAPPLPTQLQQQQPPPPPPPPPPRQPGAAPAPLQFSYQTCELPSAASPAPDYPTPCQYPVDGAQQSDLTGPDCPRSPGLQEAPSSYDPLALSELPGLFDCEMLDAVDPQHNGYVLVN
# Outline: as §1
# [3] = molecular target: GST-tagged SIK3 (Homo sapiens (Human), UniProt Q9Y2K2); assay: SIK3 inhibition test (ADP-Glo Max Assay); conditions: enzyme 100 nM, AMARA Peptide 100 μM, ATP 1 mM, 2 hours room temperature
# Chain of GST-tagged SIK3 (Q9Y2K2 whole entry): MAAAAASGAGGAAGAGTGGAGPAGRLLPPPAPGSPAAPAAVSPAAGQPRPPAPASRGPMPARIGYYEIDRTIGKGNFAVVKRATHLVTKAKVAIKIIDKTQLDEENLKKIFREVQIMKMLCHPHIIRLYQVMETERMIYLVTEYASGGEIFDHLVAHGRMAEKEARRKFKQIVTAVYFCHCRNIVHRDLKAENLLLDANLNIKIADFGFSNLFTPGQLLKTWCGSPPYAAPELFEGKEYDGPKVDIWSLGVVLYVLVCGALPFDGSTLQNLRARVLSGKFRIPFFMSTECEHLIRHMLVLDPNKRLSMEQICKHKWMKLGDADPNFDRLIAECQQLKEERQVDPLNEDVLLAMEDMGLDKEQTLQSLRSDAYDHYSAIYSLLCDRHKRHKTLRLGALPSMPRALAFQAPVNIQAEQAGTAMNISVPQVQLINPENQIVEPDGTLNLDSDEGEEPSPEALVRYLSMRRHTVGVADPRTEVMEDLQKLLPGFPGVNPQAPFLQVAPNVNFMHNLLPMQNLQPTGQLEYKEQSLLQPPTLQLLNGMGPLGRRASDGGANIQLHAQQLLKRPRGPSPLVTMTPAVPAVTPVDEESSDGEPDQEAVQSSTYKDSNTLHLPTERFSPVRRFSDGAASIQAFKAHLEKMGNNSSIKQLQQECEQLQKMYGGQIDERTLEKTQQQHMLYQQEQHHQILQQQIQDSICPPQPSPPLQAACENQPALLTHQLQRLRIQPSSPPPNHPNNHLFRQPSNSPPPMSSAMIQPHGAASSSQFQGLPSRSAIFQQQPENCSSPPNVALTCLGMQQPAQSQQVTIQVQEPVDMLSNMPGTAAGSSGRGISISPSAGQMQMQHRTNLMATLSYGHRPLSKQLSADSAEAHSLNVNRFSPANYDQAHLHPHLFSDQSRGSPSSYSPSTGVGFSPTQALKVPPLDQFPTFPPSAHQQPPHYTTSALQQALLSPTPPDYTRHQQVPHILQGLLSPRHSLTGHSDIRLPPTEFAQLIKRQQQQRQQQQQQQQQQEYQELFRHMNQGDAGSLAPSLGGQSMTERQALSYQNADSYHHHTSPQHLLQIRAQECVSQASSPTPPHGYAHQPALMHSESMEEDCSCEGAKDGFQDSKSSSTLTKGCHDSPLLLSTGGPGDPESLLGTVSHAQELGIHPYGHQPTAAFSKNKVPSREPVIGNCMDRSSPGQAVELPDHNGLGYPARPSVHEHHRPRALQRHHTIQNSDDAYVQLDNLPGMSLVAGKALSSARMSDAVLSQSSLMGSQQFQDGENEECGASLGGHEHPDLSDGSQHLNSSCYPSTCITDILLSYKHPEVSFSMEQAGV
# Outline: as §1
# Chain of GST-tagged SIK1 (P57059 whole entry): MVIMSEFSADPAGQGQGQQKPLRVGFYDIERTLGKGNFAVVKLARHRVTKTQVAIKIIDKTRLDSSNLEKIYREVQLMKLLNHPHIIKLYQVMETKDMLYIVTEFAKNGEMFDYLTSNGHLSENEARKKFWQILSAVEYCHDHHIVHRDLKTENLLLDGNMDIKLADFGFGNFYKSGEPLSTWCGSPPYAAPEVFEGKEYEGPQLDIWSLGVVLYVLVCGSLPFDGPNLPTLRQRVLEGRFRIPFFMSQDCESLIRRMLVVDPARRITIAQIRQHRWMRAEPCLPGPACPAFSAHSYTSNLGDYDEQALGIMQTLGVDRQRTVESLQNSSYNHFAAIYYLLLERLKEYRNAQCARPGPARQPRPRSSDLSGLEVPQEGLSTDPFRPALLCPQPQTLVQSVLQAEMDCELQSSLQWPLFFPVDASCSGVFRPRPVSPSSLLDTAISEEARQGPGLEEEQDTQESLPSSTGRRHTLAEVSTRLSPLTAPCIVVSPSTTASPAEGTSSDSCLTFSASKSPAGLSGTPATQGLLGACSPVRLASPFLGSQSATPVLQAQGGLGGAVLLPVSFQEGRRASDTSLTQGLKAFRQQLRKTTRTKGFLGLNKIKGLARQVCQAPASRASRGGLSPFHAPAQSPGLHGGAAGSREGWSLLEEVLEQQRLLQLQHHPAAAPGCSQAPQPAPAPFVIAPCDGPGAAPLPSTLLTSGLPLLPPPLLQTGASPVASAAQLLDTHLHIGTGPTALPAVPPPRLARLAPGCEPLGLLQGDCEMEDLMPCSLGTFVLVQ
Compound,IC50 [1],IC50 [2],IC50 [3]
"COc1cc(-c2c3c(OCCCO)cc(-c4cnn(C)c4)cc3nn2C)cc(OC(F)F)c1C(=O)N1CC(O)(C(F)(F)F)C1 [Example 28, [2-(difluoromethoxy)-4-[4-(3-hydroxypropoxy)-2-methyl-6-(1-methylpyrazol-4-yl)indazol-3-yl]-6-methoxyphenyl]-[3-Hydroxy-3-(trifluoromethyl)azetidin-1-yl]methanone]",7.3 nM,4.7 nM,13.6 nM
"COc1cc(-c2c3c(OCC(F)(F)F)cc(-c4cnn(C)c4)cc3nn2C)cc(OC(F)F)c1C(=O)N1CC(O)(C(F)(F)F)C1 [Example 30, [2-(difluoromethoxy)-6-methoxy-4-[2-methyl-6-(1-methylpyrazol-4-yl)-4-(2,2,2-trifluoroethoxy)indazol-3-yl]phenyl]-[3-hydroxy-3-(trifluoromethyl)azetidin-1-yl]methanone]",5.1 nM,6.6 nM,3.6 nM
"COc1cc(-c2c3c(C#N)cc(-c4cnn(C(C)C)c4)cc3nn2C)cc(OC(F)F)c1C(=O)N[C@@H]1C[C@@H]1F [Example 33, 4-[4-cyano-2-methyl-6-(1-propan-2-ylpyrazol-4-yl)indazol-3-yl]-2-(difluoromethoxy)-N-[(1R,2S)-2-fluorocyclopropyl]-6-methoxybenzamide]",4.6 nM,2.6 nM,8.5 nM
"COc1cc(-c2c3c(OCc4cccnc4)cc(-c4cnn(C)c4)cc3nn2C)cc(OC(F)F)c1C(=O)N1CC(O)(C(F)(F)F)C1 [Example 34, [2-(difluoromethoxy)-6-methoxy-4-[2-methyl-6-(1-methylpyrazol-4-yl)-4-(pyridin-3-ylmethoxy)indazol-3-yl]phenyl]-[3-hydroxy-3-(trifluoromethyl)azetidin-1-yl]methanone]",0.4 nM,1 nM,2.9 nM
"COc1cc(-c2c3c(C(F)F)cc(-c4cnn(C)c4)cc3nn2C)cc(OC(F)F)c1C(=O)N1CC(O)(C(F)F)C1 [Example 38, [2-(difluoromethoxy)-4-[4-(difluoromethyl)-2-methyl-6-(1-methylpyrazol-4-yl)indazol-3-yl]-6-methoxyphenyl]-[3-(difluoromethyl)-3-hydroxyazetidin-1-yl]methanone]",16.8 nM,13.8 nM,10.1 nM
"COc1cc(-c2c3c(C#N)cc(-c4cnn(C)c4)cc3nn2C)cc(OC(F)F)c1C(=O)N1CC(C#N)(C(F)F)C1 [Example 39, 3-[4-[3-cyano-3-(difluoromethyl)azetidin-1-carbonyl]-3-(difluoromethoxy)-5-methoxyphenyl]-2-methyl-6-(1-methylpyrazol-4-yl)indazole-4-carbonitrile]",16.2 nM,18.2 nM,9.4 nM
"COc1cc(-c2c3c(C#N)cc(/C=C/c4cnn(C)c4)cc3nn2C)cc(OC(F)F)c1C(=O)N[C@@H]1C[C@@H]1F [Example 40, 4-[4-cyano-2-methyl-6-[(E)-2-(1-methylpyrazol-4-yl)ethenyl]indazol-3-yl]-2-(difluoromethoxy)-N-[(1R,2S)-2-fluorocyclopropyl]-6-methoxybenzamide]",4.9 nM,3.7 nM,2.1 nM
"CCOc1cc(-c2cnn(C)c2)cc2nn(C)c(-c3cc(OC)c(C(=O)N4CC(O)(C(F)(F)F)C4)c(OC(F)F)c3)c12 [Example 42, [2-(difluoromethoxy)-4-[4-ethoxy-2-methyl-6-(1-methylpyrazol-4-yl)indazol-3-yl]-6-methoxyphenyl]-[3-hydroxy-3-(trifluoromethyl)azetidin-1-yl]methanone]",2 nM,12.8 nM,10.5 nM
"COc1cc(-c2c3c(OCCCCO)cc(-c4cnn(C)c4)cc3nn2C)cc(OC(F)F)c1C(=O)N1CC(O)(C(F)(F)F)C1 [Example 44, [2-(difluoromethoxy)-4-[4-(4-hydroxybutoxy)-2-methyl-6-(1-methylpyrazol-4-yl)indazol-3-yl]-6-methoxyphenyl]-[3-hydroxy-3-(trifluoromethyl)azetidin-1-yl]methanone]",6.7 nM,8.4 nM,15.5 nM
"COc1cc(-c2c3c(OCC[C@H](C)O)cc(-c4cnn(C)c4)cc3nn2C)cc(OC(F)F)c1C(=O)N1CC(O)(C(F)(F)F)C1 [Example 47, [2-(difluoromethoxy)-4-[4-[(3S)-3-hydroxybutoxy]-2-methyl-6-(1-methylpyrazol-4-yl)indazol-3-yl]-6-methoxyphenyl]-[3-hydroxy-3-(trifluoromethyl)azetidin-1-yl]methanone]",9 nM,16.2 nM,19.2 nM
"COc1cc(-c2c3c(OCc4cnc(C)s4)cc(-c4cnn(C)c4)cc3nn2C)cc(OC(F)F)c1C(=O)N1CC(O)(C(F)(F)F)C1 [Example 49, [2-(difluoromethoxy)-6-methoxy-4-[2-methyl-6-(1-methylpyrazol-4-yl)-4-[(2-methyl-1,3-thiazol-5-yl)methoxy]indazol-3-yl]phenyl]-[3-hydroxy-3-(trifluoromethyl)azetidin-1-yl]methanone]",3.9 nM,11.2 nM,9.7 nM

# The remaining compounds from weak to strong by IC50 [1], led by results:
IC50 [1],IC50 [2],IC50 [3],Compound
18.9 nM,8.6 nM,9.4 nM,"COc1cc(-c2c3c(OC)cc(-c4cnn(C)c4)cc3nn2C)cc(OC(F)F)c1C(=O)N[C@@H]1CC1(F)F [Example 45, N-[(1R)-2,2-difluorocyclopropyl]-2-(difluoromethoxy)-6-methoxy-4-[4-methoxy-2-methyl-6-(1-methylpyrazol-4-yl)indazol-3-yl]benzamide]"
12.5 nM,15.4 nM,10.2 nM,"COc1cc(-c2c3c(C#N)cc(-c4cnn(C)c4)cc3nn2C)cc(OC(F)F)c1C(=O)N1CC(N)(C(F)(F)F)C1 [Example 36, 3-[4-[3-amino-3-(trifluoromethyl)azetidin-1-carbonyl]-3-(difluoromethoxy)-5-methoxyphenyl]-2-methyl-6-(1-methylpyrazol-4-yl)indazole-4-carbonitrile]"
8.6 nM,10.3 nM,13.2 nM,"COc1cc(-c2c3c(OCC4CC4)cc(-c4cnn(C)c4)cc3nn2C)cc(OC(F)F)c1C(=O)N1CC(O)(C(F)(F)F)C1 [Example 29, [4-[4-(cyclopropylmethoxy)-2-methyl-6-(1-methylpyrazol-4-yl)indazol-3-yl]-2-(difluoromethoxy)-6-methoxyphenyl]-[3-hydroxy-3-(trifluoromethyl)azetidin-1-yl]methanone]"
7.9 nM,8.3 nM,12.9 nM,"COc1cc(-c2c3c(OC)cc(-c4cnn(C)c4)cc3nn2C)cc(OC(F)F)c1C(=O)N1CC(O)(C(F)F)C1 [Example 37, [2-(difluoromethoxy)-6-methoxy-4-[4-methoxy-2-methyl-6-(1-methylpyrazol-4-yl)indazol-3-yl]phenyl]-[3-(difluoromethyl)-3-hydroxyazetidin-1-yl]methanone]"
5 nM,4.5 nM,8.9 nM,"COc1cc(-c2c3c(C#N)cc(-c4cnn(CC5CC5)c4)cc3nn2C)cc(OC(F)F)c1C(=O)N[C@@H]1C[C@@H]1F [Example 32, 4-[4-cyano-6-[1-(cyclopropylmethyl)pyrazol-4-yl]-2-methylindazol-3-yl]-2-(difluoromethoxy)-N-[(1R, 2S)-2-fluorocyclopropyl]-6-methoxybenzamide]"
3.7 nM,3.3 nM,7.8 nM,"COc1cc(-c2c3c(C#N)cc(-c4cnn(CC(F)F)c4)cc3nn2C)cc(OC(F)F)c1C(=O)N[C@@H]1C[C@@H]1F [Example 31, 4-[4-cyano-6-[1-(2,2-difluoroethyl)pyrazol-4-yl]-2-methylindazol-3-yl]-2-(difluoromethoxy)-N-[(1R, 2S)-2-fluorocyclopropyl]-6-methoxybenzamide]"
3.5 nM,10.6 nM,11.2 nM,"COc1cc(-c2c3c(OCc4cnccn4)cc(-c4cnn(C)c4)cc3nn2C)cc(OC(F)F)c1C(=O)N1CC(O)(C(F)(F)F)C1 [Example 48, [2-(difluoromethoxy)-6-methoxy-4-[2-methyl-6-(1-methylpyrazol-4-yl)-4-(pyrazin-2-ylmethoxy)indazol-3-yl]phenyl]-[3-hydroxy-3-(trifluoromethyl)azetidin-1-yl]methanone]"
2.4 nM,19.7 nM,20 nM,"COc1cc(-c2c3c(OC(C)C)cc(-c4cnn(C)c4)cc3nn2C)cc(OC(F)F)c1C(=O)N1CC(O)(C(F)(F)F)C1 [Example 43, [2-(difluoromethoxy)-6-methoxy-4-[2-methyl-6-(1-methylpyrazol-4-yl)-4-propan-2-yloxyindazol-3-yl]phenyl]-[3-hydroxy-3-(trifluoromethyl)azetidin-1-yl]methanone]"
1.9 nM,3 nM,12.9 nM,"COc1cc(-c2c3c(OCc4ccncc4)cc(-c4cnn(C)c4)cc3nn2C)cc(OC(F)F)c1C(=O)N1CC(O)(C(F)(F)F)C1 [Example 35, [2-(difluoromethoxy)-6-methoxy-4-[2-methyl-6-(1-methylpyrazol-4-yl)-4-(pyridin-4-ylmethoxy)indazol-3-yl]phenyl]-[3-hydroxy-3-(trifluoromethyl)azetidin-1-yl]methanone]"
1.3 nM,7.6 nM,5.3 nM,"COc1cc(-c2c3c(OCC(F)F)cc(-c4cnn(C)c4)cc3nn2C)cc(OC(F)F)c1C(=O)N1CC(O)(C(F)(F)F)C1 [Example 41, [4-[4-(2,2-difluoroethoxy)-2-methyl-6-(1-methylpyrazol-4-yl)indazol-3-yl]-2-(difluoromethoxy)-6-methoxyphenyl]-[3-hydroxy-3-(trifluoromethyl)azetidin-1-yl]methanone]"
